# Key:
# Type in all cases: cell-based, human
# HepG2 cells [1] = assay: HepG2 cell viability (MTT assay); details: 48 h treatment, 0.1 nM to 10 μM, versus control cells
# Method: Figure 3 HepG2 cell viability after the Dim3 (A) and Dim16 (B) treatments. Bar graphs indicating the results of the cell viability assay of HepG2 cells after Dim3 and Dim16 (0.1–10,000 nM) treatment for 48 h. The data points represent the mean ± SD of the three experiments in triplicate. ns: not significant.
# The HepG2 cell line was bought from ATCC (HB-8065, ATCC from LGC Standards, Milan, Italy) and cultured in DMEM high glucose with stable L-glutamine supplemented with 10% FBS, 100 U/mL penicillin, and 100 μg/mL streptomycin (complete growth medium) with incubation at 37 °C under a 5% CO2 atmosphere.
# HepG2 cells [2] = assay: Fluorescent LDL uptake by HepG2 cells in the presence of PCSK9; details: co-incubated with PCSK9 4 μg/mL, relative to untreated control cells
# Method: HepG2 cells (3 × 10^4/well) were seeded in 96-well plates and kept in complete growth medium for 2 days before treatment. On the third day, the cells were washed with PBS and then starved overnight (O/N) in DMEM without FBS and antibiotics. After starvation, they were treated with 4.0 μg/mL PCSK9, 4.0 μg/mL PCSK9 + diimidazole analogues, and vehicle (H2O) for 2 h with at 37 °C under a 5% CO2 atmosphere. At the end of the treatment, the culture medium was replaced with 50 μL/well LDL-DyLight 550 working solution (Cayman Chemical Company, Ann Arbor, MI, USA) prepared in DMEM without FBS and antibiotics. The cells were additionally incubated for 2 h at 37 °C, and then the culture medium was aspirated and replaced with PBS (100 μL/well). The degree of LDL uptake was measured using a Synergy H1 fluorescent plate reader (Winooski, VT, USA) (excitation and emission wavelengths of 540 and 570 nm, respectively). Fluorescent LDL uptake was finally assessed following optimized protocol.[14]
# platelet-rich plasma = assay: Platelet aggregation by light transmission aggregometry (PCSK9-potentiated, epinephrine-induced); details: 10 nM preincubated with PCSK9 5 μg/mL; epinephrine 0.16 μM; n = 5 healthy donors
# Method: Whole blood (WB) was drawn with a 19-gauge needle without venous stasis into citrate (1/10 volume of 0.129 M sodium citrate), discarding the first 4 mL. Platelet-rich plasma (PRP) was obtained by centrifuging whole blood for 10 min at 100g without breaks at room temperature as previously described.[44]
# Platelet function was assessed by light transmission aggregometry using PAP-8 aggregometer (BioData). Lag time and area under the curve (AUC) were used as the main parameters describing the kinetic of platelet aggregation as previously described.[3] Briefly, PRP was preincubated with PCSK9 (5 μg/mL, 2 min at 37 °C) followed by epinephrine (0.16 μM) stimulation. To test the effect of Dim16 on PCSK9-dependent platelet aggregation, PCSK9 was preincubated with Dim16 (10 nM) for 15 min at room temperature and then added to PRP.
Compound,HepG2 cell vitality (HepG2 cells [1]),LDL uptake (HepG2 cells [2]; 1 nM),LDL uptake (HepG2 cells [2]; 10 nM),"effect on PCSK9 potentiation of platelet aggregation (lag time, AUC) (platelet-rich plasma)"
"C#Cc1ncc(-c2ncc(-c3ccc4ccccc4c3)n2CCCC(C)(C)C)n1CCCCCNC [Dim3, 5-(1-(4,4-Dimethylpentyl)-2′-ethynyl-5-(naphthalen-2-yl)-1H,3′H-[2,4′-biimidazol]-3′-yl)-N-methylpentan-1-amine]",safe for HepG2 cells and safe,94.12 ± 10.95%,103.47 ± 7.34%,–
"CNCCCCCn1c(-c2ncc(-c3ccc4ccccc4c3)n2CCCC(C)(C)C)cnc1I [Dim16, 5-(1-(4,4-Dimethylpentyl)-2′-iodo-5-(naphthalen-2-yl)-1H,3′H-[2,4′-biimidazol]-3′-yl)-N-methylpentan-1-amine]",safe for HepG2 cells and safe,81.87 ± 7.45%,136.47 ± 8.81%,significantly prevented

# Source: paper PMC10291552, “Computational Design, Synthesis, and Biological Evaluation of Diimidazole Analogues Endowed with Dual PCSK9/HMG-CoAR-Inhibiting Activity” (Journal of Medicinal Chemistry, 2023)
